Results reported in patent US20230348376A1 (TEIJIN PHARMA LIMITED, priority 2020, published 2023).
pEC50: −log10 of the molar value.

Target: T1, human VDR (Homo sapiens, UniProt P11473)
T1 sequence (P11473 1-427): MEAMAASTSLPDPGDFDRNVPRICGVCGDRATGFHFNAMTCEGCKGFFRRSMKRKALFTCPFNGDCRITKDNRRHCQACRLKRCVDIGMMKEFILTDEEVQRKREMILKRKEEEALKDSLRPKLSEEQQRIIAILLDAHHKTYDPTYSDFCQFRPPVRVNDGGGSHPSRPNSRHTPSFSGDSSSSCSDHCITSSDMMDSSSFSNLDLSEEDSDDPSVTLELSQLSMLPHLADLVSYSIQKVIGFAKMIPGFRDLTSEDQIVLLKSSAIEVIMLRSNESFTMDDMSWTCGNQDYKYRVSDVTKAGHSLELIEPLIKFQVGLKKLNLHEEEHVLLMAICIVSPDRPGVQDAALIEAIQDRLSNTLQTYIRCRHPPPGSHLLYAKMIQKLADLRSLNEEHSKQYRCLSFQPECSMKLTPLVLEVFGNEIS
T1 sequence (P19793 1-462 partner): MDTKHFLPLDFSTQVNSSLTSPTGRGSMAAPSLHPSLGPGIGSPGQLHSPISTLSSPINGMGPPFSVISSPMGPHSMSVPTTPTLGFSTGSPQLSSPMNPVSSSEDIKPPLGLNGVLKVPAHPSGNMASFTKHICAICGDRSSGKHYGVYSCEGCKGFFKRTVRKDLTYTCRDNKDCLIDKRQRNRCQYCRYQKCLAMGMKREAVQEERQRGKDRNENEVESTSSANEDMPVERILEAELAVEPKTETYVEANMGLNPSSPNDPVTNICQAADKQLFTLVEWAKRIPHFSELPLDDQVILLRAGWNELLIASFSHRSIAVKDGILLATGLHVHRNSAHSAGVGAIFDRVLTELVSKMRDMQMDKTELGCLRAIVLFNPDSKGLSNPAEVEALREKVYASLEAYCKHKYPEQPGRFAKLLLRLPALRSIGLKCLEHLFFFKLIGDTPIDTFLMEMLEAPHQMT
Assay: Evaluation of VDR transcription activity in human osteoblasts (HOS cells), luciferase reporter
Settings: Activity (EC50, VDR transcription activity), HOS cells transfected with human VDR, human RXRα and DR3 luciferase reporter; 21 hours

SMILES	pEC50
C=C1[C@H](O)CC(=C/C=C2\CCC[C@]3(C)[C@@H]([C@@H](C)CN4CCC(C(C)(F)F)CC4)CC[C@@H]23)C[C@H]1O [Compound C057, (1R,3R)-5-(2-((1R,3aS,7aR,E)-1-((R)-1-(4-(1,1-difluoroethyl)piperidin-1-yl)propan-2-yl)-7a-methyloctahydro-4H-inden-4-ylidene)ethylidene)-2-methylenecyclohexane-1,3-diol]	8.00 to 9.00
C=C1/C(=C\C=C2/CCC[C@]3(C)[C@@H]([C@@H](C)CN4CCC(F)CC4)CC[C@@H]23)C[C@@H](O)C[C@@H]1O [Compound C058]	7.00 to 8.00
C=C1[C@H](O)CC(=C/C=C2\CCC[C@]3(C)[C@@H]([C@@H](C)CN4CCC(C(F)(F)F)CC4)CC[C@@H]23)C[C@H]1O [Compound C060, (1R,3R)-5-(2-((1R,3aS,7aR,E)-7a-methyl-1-((R)-1-(4-(trifluoromethyl)piperidin-1-yl)propan-2-yl)octahydro-4H-inden-4-ylidene)ethylidene)-2-methylenecyclohexane-1,3-diol]	8.00 to 9.00
C=C1/C(=C\C=C2/CCC[C@]3(C)[C@@H]([C@H](C)CN4CCO[C@H](C(F)F)C4)CC[C@@H]23)C[C@@H](O)C[C@@H]1O [Compound D005, (1R,3S,Z)-5-(2-((1R,3aS,7aR,E)-1-((S)-1-((S)-2-(difluoromethyl)morpholino)propan-2-yl)-7a-methyloctahydro-4H-inden-4-ylidene)ethylidene)-4-methylenecyclohexane-1,3-diol]	7.00 to 8.00
C=C1/C(=C\C=C2/CCC[C@]3(C)[C@@H]([C@H](C)CN4CCO[C@@H](C(F)F)C4)CC[C@@H]23)C[C@@H](O)C[C@@H]1O [Compound D006, (1R,3S,Z)-5-(2-((1R,3aS,7aR,E)-1-((S)-1-((R)-2-(difluoromethyl)morpholino)propan-2-yl)-7a-methyloctahydro-4H-inden-4-ylidene)ethylidene)-4-methylenecyclohexane-1,3-diol]	7.00 to 8.00
C=C1[C@H](O)CC(=C/C=C2\CCC[C@]3(C)[C@@H]([C@H](C)CN4CCO[C@@H](C)C4)CC[C@@H]23)C[C@H]1O [Compound D010, (1R,3R)-5-(2-((1R,3aS,7aR,E)-7a-methyl-1-((S)-1-((S)-2-methylmorpholino)propan-2-yl)-octahydro-4H-inden-4-ylidene)ethylidene)-2-methylene-cyclohexane-1,3-diol]	8.00 to 9.00
C=C1[C@H](O)CC(=C/C=C2\CCC[C@]3(C)[C@@H]([C@H](C)CN4CCOC5(CC5)C4)CC[C@@H]23)C[C@H]1O [Compound D011, (1R,3R)-5-(2-((1R,3aS,7aR,E)-1-((S)-1-(4-oxa-7-azaspiro[2.5]octan-7-yl)propan-2-yl)-7a-methyloctahydro-4H-inden-4-ylidene)ethylidene)-2-methylenecyclohexane-1,3-diol]	8.00 to 9.00
C=C1[C@H](O)CC(=C/C=C2\CCC[C@]3(C)[C@@H]([C@H](C)CN4CCOC(C)(C)C4)CC[C@@H]23)C[C@H]1O [Compound D014, (1R,3R)-5-(2-((1R,3aS,7aR,E)-1-((S)-1-(2,2-dimethylmorpholino)propan-2-yl)-7a-methyloctahydro-4H-inden-4-ylidene)ethylidene)-2-methylenecyclohexane-1,3-diol]	8.00 to 9.00

The remaining lines, values ahead:

pEC50	SMILES
7.00 to 8.00	C=C1[C@H](O)CC(=C/C=C2\CCC[C@]3(C)[C@@H]([C@H](C)CN4CCOC[C@@H]4C)CC[C@@H]23)C[C@H]1O [Compound D015, (1R,3R)-5-(2-((1R,3aS,7aR,E)-7a-methyl-1-((S)-1-((S)-3-methylmorpholino)propan-2-yl)octahydro-4H-inden-4-ylidene)ethylidene)-2-methylenecyclohexane-1,3-diol]
7.00 to 8.00	C=C1/C(=C\C=C2/CCC[C@]3(C)[C@@H]([C@H](C)CCN4CCOCC4)CC[C@@H]23)C[C@@H](O)C[C@@H]1O [Compound D022, (1R,3S,Z)-5-(2-((1R,3aS,7aR,E)-7a-methyl-1-((R)-4-morpholinobutan-2-yl)octahydro-4H-inden-4-ylidene)ethylidene)-4-methylenecyclohexane-1,3-diol]
8.00 to 9.00	C=C1[C@H](O)CC(=C/C=C2\CCC[C@]3(C)[C@@H]([C@H](C)CCN4C[C@@H](C)O[C@@H](C)C4)CC[C@@H]23)C[C@H]1O [Compound D028, (1R,3R)-5-(2-((1R,3aS,7aR,E)-1-((R)-4-((2S,6R)-2,6-dimethylmorpholino)butan-2-yl)-7a-methyloctahydro-4H-inden-4-ylidene)ethylidene)-2-methylenecyclohexane-1,3-diol]
8.00 to 9.00	C=C1[C@H](O)CC(=C/C=C2\CCC[C@]3(C)[C@@H]([C@H](C)CCN4CCO[C@H](C(F)F)C4)CC[C@@H]23)C[C@H]1O [Compound D033, (1R,3R)-5-(2-((1R,3aS,7aR,E)-1-((R)-4-((S)-2-(difluoromethyl)morpholino)butan-2-yl)-7a-methyloctahydro-4H-inden-4-ylidene)ethylidene)-2-methylenecyclohexane-1,3-diol]
7.00 to 8.00	C[C@H](CCN1CCO[C@H](C(F)F)C1)[C@H]1CC[C@H]2/C(=C/C=C3C[C@@H](O)C[C@H](O)C3)CCC[C@]12C [Compound D034, (1R,3R)-5-(2-((1R,3aS,7aR,E)-1-((R)-4-((S)-2-(difluoromethyl)morpholino)butan-2-yl)-7a-methyloctahydro-4H-inden-4-ylidene)ethylidene)cyclohexane-1,3-diol]
7.00 to 8.00	C=C1/C(=C\C=C2/CCC[C@]3(C)[C@@H]([C@H](C)CCN4CCO[C@H](C(F)F)C4)CC[C@@H]23)C[C@@H](O)C[C@@H]1O [Compound D035, (1R,3S,Z)-5-(2-((1R,3aS,7aR,E)-1-((R)-4-((S)-2-(difluoromethyl)morpholino)butan-2-yl)-7a-methyloctahydro-4H-inden-4-ylidene)ethylidene)-4-methyloctahydro-1,3-diol]
8.00 to 9.00	C=C1[C@H](O)CC(=C/C=C2\CCC[C@]3(C)[C@@H]([C@H](C)CCN4CCO[C@@H](C(F)F)C4)CC[C@@H]23)C[C@H]1O [Compound D036, (1R,3R)-5-(2-((1R,3aS,7aR,E)-1-((R)-4-((R)-2-(difluoromethyl)morpholino)butan-2-yl)-7a-methyloctahydro-4H-inden-4-ylidene)ethylidene)-2-methylenecyclohexane-1,3-diol]
8.00 to 9.00	C=C1[C@H](O)CC(=C/C=C2\CCC[C@]3(C)[C@@H]([C@H](C)CCN4C[C@@H](C)OC[C@H]4C)CC[C@@H]23)C[C@H]1O [Compound D039, (1R,3R)-5-(2-((1R,3aS,7aR,E)-1-((R)-4-((2R,5R)-2,5-dimethylmorpholino)butan-2-yl)-7a-methyloctahydro-4H-inden-4-ylidene)ethylidene)-2-methylenecyclohexane-1,3-diol]
8.00 to 9.00	C=C1[C@H](O)CC(=C/C=C2\CCC[C@]3(C)[C@@H]([C@H](C)CCN4CCO[C@H](C)C4)CC[C@@H]23)C[C@H]1O [Compound D040, (1R,3R)-5-(2-((1R,3aS,7aR,E)-7a-methyl-1-((R)-4-((R)-2-methylmorpholino)butan-2-yl)octahydro-4H-inden-4-ylidene)ethylidene)-2-methylenecyclohexane-1,3-diol]
6.00 to 7.00	C[C@H](CCN1CCOCC1(C)C)[C@H]1CC[C@H]2/C(=C/C=C3C[C@@H](O)C[C@H](O)C3)CCC[C@]12C [Compound D049, (1R,3R)-5-(2-((1R,3aS,7aR,E)-1-((R)-4-(3,3-dimethylmorpholino)butan-2-yl)-7a-methyloctahydro-4H-inden-4-ylidene)ethylidene)cyclohexane-1,3-diol]
